# Results: ChEMBL document CHEMBL5532670, “Discovery of Tetrahydropyrazolopyrazine Derivatives as Potent and Selective MYT1 Inhibitors for the Treatment of Cancer” (J Med Chem, 2024)
# How the values were obtained:
# [1] = Tmax in Sprague-Dawley rat at 20 mg/kg, po measured after 24 hrs; format: ADME, organism-based; conditions: in vivo
# in vivo [2] = conditions: CD-1, mouse, iv, 1 mg/kg
# [3] = Tmax in CD-1 mouse at 30 mg/kg, po measured after 24 hrs; format: ADME, organism-based; conditions: in vivo
# [4] = MRT (0 to t) in CD-1 mouse at 1 mg/kg, iv measured after 24 hrs; format: ADME, organism-based; conditions: in vivo
# in vivo [5] = conditions: Sprague-Dawley, rat, iv, 1 mg/kg
# in vivo [6] = conditions: Sprague-Dawley, rat, iv, 1 mg/kg; remark: listed apart in the source
# [7] = Drug concentration in mouse plasma assessed as free fraction administered for 21 days and measured after 8 hrs post dose; format: ADME; conditions: 504 h, time 21 day
# [8] = MRT (0 to t) in Sprague-Dawley rat at 1 mg/kg, iv measured after 24 hrs; format: ADME, organism-based; conditions: in vivo
# in vivo [9] = conditions: CD-1, mouse, iv, 1 mg/kg; remark: listed apart in the source
# in vitro [10] = conditions: mouse, hepatocytes
# [11] = Cmax in CD-1 mouse at 30 mg/kg, po measured after 24 hrs; format: ADME, organism-based; conditions: in vivo
# in vitro [12] = conditions: human, Caco-2
# [13] = Oral bioavailability in Sprague-Dawley rat at 20 mg/kg measured after 24 hrs; format: ADME, organism-based; conditions: in vivo
# [14] = Cmax in Sprague-Dawley rat at 20 mg/kg, po measured after 24 hrs; format: ADME, organism-based; conditions: in vivo
# [15] = AUC (0 to t) in CD-1 mouse at 30 mg/kg, po measured after 24 hrs; format: ADME, organism-based; conditions: in vivo
# [16] = Oral bioavailability in CD-1 mouse at 30 mg/kg measured after 24 hrs; format: ADME, organism-based; conditions: in vivo
# [17] = Tmax in CD-1 mouse at 10 mg/kg, po measured after 24 hrs; format: ADME, organism-based; conditions: in vivo
# [18] = Oral bioavailability in CD-1 mouse at 10 mg/kg measured after 24 hrs; format: ADME, organism-based; conditions: in vivo
# [19] = AUC (0 to t) in CD-1 mouse at 10 mg/kg, po measured after 24 hrs; format: ADME, organism-based; conditions: in vivo
# [20] = Oral bioavailability in Sprague-Dawley rat at 10 mg/kg measured after 24 hrs; format: ADME, organism-based; conditions: in vivo
# [21] = Cmax in Sprague-Dawley rat at 10 mg/kg, po measured after 24 hrs; format: ADME, organism-based; conditions: in vivo
# [22] = Cmax in CD-1 mouse at 10 mg/kg, po measured after 24 hrs; format: ADME, organism-based; conditions: in vivo
# [23] = Tmax in Sprague-Dawley rat at 10 mg/kg, po measured after 24 hrs; format: ADME, organism-based; conditions: in vivo
# in vivo [24] = conditions: CD-1, mouse, po, 5 mg/kg
# in vivo [25] = conditions: CD-1, mouse, po, 5 mg/kg; remark: listed apart in the source
# in vivo [26] = conditions: Sprague-Dawley, rat, po, 5 mg/kg
# in vivo [27] = conditions: CD-1, mouse, po, 5 mg/kg; remark: listed apart in the source
# [28] = AUC (0 to t) in Sprague-Dawley rat at 5 mg/kg, po measured after 24 hrs; format: ADME, organism-based; conditions: in vivo
# in vivo [29] = conditions: Sprague-Dawley, rat, po, 5 mg/kg; remark: listed apart in the source
# [30] = AUC (0 to t) in CD-1 mouse at 5 mg/kg, po measured after 24 hrs; format: ADME, organism-based; conditions: in vivo
# in vivo [31] = conditions: Sprague-Dawley, rat, po, 5 mg/kg; remark: listed apart in the source
Vd at 24 h (in vivo [2]) [L/kg],MRT last at 24 h [4] [min],clearance at 24 h (in vivo [5]) [mL/min/kg],Vd at 24 h (in vivo [6]) [L/kg],Cp(f) [7] [nM],MRT last at 24 h [8] [min],clearance at 24 h (in vivo [9]) [mL/min/kg],CLhep predicted (in vitro [10]) [mL/min/kg],Papp A→B at 2 h (in vitro [12]) [×10⁻⁶ cm/s],Compound,other results
1.3,10.2,49.1,1.4,60.7,28.2,122,83.5,1,Cc1ccc(O)c(C)c1-n1c(N)c(C(=O)N2CCn3nccc3C2)c2nc(C3CC3)c(C)nc21,Tmax [1]: 40.2 min; Tmax [3]: 15 min; Cmax [11]: 1800 ng/mL; bioavailability [13]: 55.9%; Cmax [14]: 1780 ng/mL; AUC(0-t) at 24 h [15]: 2310 ng·h/mL; bioavailability [16]: 55.8%
0.99,6.6,46.8,1.2,–,24.6,149,85.4,1.48,Cc1ccc(O)c(C)c1-n1c(N)c(C(=O)N2CCn3nccc3C2)c2nc(C)c(C)nc21,Tmax [17]: 15 min; bioavailability [18]: 29.3%; AUC(0-t) at 24 h [19]: 330 ng·h/mL; bioavailability [20]: 50.9%; Cmax [21]: 1410 ng/mL; Cmax [22]: 902 ng/mL; Tmax [23]: 15 min
2.3,23.4,37.6,1.4,39.3,33.6,85.7,79.4,11,Cc1cc2c(C(N)=O)c(N)n(-c3c(C)ccc(O)c3C)c2nc1C [LUNRESERTIB],Tmax at 24 h (in vivo [24]): 24 min; Cmax at 24 h (in vivo [25]): 511 ng/mL; Tmax at 24 h (in vivo [26]): 15 min; bioavailability at 24 h (in vivo [27]): 55.8%; AUC(0-t) at 24 h [28]: 1720 ng·h/mL; Cmax at 24 h (in vivo [29]): 1360 ng/mL; AUC(0-t) at 24 h [30]: 539 ng·h/mL; bioavailability at 24 h (in vivo [31]): 78%
